Here are results for four compounds from ChEMBL document CHEMBL1201862, “PubChem BioAssay data set” (2004).

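Compound exposure: 48 hours, 5 concentrations, 96-well plates. GI50 marks 50% less growth.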 Active and inactive are the calls of the source. Rule as the data show it: active = GI50 up to about 1.1 µM and inactive = higher.

Assay in all cases: inhibition of tumour cell growth, NCI panel, 48 h
In test [1] the test system is 786-0.
Test [2] relates to A498.
Test [3] relates to DU-145.
In test [4] the test system is EKVX.
Test [5] has as its system HT-29.
Test [6] deals with K562.
The subject of test [7] is MCF7.
In test [8] the test system is OVCAR-4.
For test [9], the system named is PC-3.
For test [10], the system named is RPMI-8226.
The test system of test [11] is SNB-75.
For test [12], the system named is SW-620.
Test [13] deals with T47D.
Test [14] has as its system TK-10.
Test [15] relates to U-251.
Test [16] relates to UACC-62.
The test system of test [17] is UO-31.
Test [18] deals with RXF 393.
For test [19], the system named is SK-MEL-5.
The test system of test [20] is BT-549.

Consider `CCCCN(CCCC)CC(O)c1cc(-c2ccc(C(F)(F)F)cc2)nc(-c2ccc(C(F)(F)F)cc2)c1` (centres undefined), for which the GI50 is 61.1 µM (inactive) in [1]; > 100 µM (inactive) in test [2]; > 100 µM (inactive) in test [3]; 39.4 µM (inactive) in [4]; > 100 µM (inactive) in test [5]; 76.2 µM (inactive) in test [6]. The GI50 in test [7] was > 10 µM (inactive); in [8] it was > 100 µM (inactive); in [9], 55 µM (inactive); in test [10] it was 39.9 µM (inactive); in [11], 13.8 µM (inactive); in test [12], > 100 µM (inactive). The GI50 in test [13] is 34.4 µM (inactive); in test [14], > 100 µM (inactive); in test [15], > 100 µM (inactive); in test [16], > 100 µM (inactive); in test [17], 95.7 µM (inactive).
As to `C=CCC1NCCC2=C1C(S(=O)(=O)c1ccc(C)cc1)c1ccccc12` (centres undefined), the GI50 in test [1] was 12.9 µM (inactive); in [2], 19 µM (inactive); in test [3], 11.9 µM (inactive); in test [4], 18 µM (inactive); in [5] it was 16 µM (inactive); in [6] it was 5.62 µM (inactive). Moreover, the GI50 in test [7] is 7.13 µM (inactive); in test [8], 12.1 µM (inactive); in test [9], 10.4 µM (inactive); in test [10] it was 5.55 µM (inactive); in [18], 5.66 µM (inactive); in test [19], 14.3 µM (inactive). The GI50 is 5.64 µM (inactive) in test [11]; 14.2 µM (inactive) in [12]; 10.4 µM (inactive) in [13]; 16.4 µM (inactive) in test [14]; 11.5 µM (inactive) in test [15]; 11.7 µM (inactive) in test [16]. For the same compound, the GI50 in test [17] is 7.67 µM (inactive).
Take `Cc1n(CC(C)C)c2c([n+]1C)C(=O)c1ccccc1C2=O`: the GI50 in test [1] was 0.578 µM (active); in test [2], 0.32 µM (active); in [20], 0.227 µM (active); in test [3], 0.203 µM (active); in [4] it was 0.0631 µM (active); in test [5], 0.0241 µM (active). In addition, the GI50 in test [6] is 0.431 µM (active); in test [8] it was 0.0594 µM (active); in test [9], 0.0348 µM (active); in test [10] it was 0.0628 µM (active); in test [18] it was 0.811 µM (active); in test [19], 0.0473 µM (active). For the same compound, the GI50 in [11] was 0.416 µM (active); in [12], 0.0432 µM (active); in test [13] it was 0.0371 µM (active); in test [14], 0.411 µM (active); in [15], 0.0588 µM (active); in [16], 0.198 µM (active). Also, the GI50 in test [17] was 1.29 µM (inactive).
In the case of `Oc1ccc2ccccc2c1/N=N/c1ccc(/N=N/c2ccccc2)cc1`, the GI50 in test [1], in [2], in test [20], in test [3], in test [4] and in test [5] was > 100 µM (inactive) throughout. The GI50 in test [6], in test [8], in [9], in test [10], in test [18] and in test [19] was > 100 µM (inactive) throughout. Moreover, the GI50 in [11] was 70.1 µM (inactive); in test [12], > 100 µM (inactive); in test [13], > 100 µM (inactive); in test [14] it was > 100 µM (inactive); in [15], 46.3 µM (inactive); in test [16], 75.7 µM (inactive). Moreover, the GI50 in [17] was 59 µM (inactive).
